In patent publication US11554123B2, “Compositions and methods for reactivating latent HIV-1 infections” (Saint Joseph's University, priority 2017, dated 2023):
Values joined by “and” are separate entries in the source; they are usually repeats but may differ in a detail not shown here. Equal values may be shown once. “Also recorded” adds a separate entry of the source. Read-outs that look alike come from different tables or passages of the source.

Tests used:
Assay type in all cases: cell-based
CBP/P300 = assay: ChIP for CBP/P300 at integrated HIV-1 LTR in TZMbl cells; settings: for recruitment of CBP/P300 to the HIV-1 LTR: addition of 50 μM Ro5-3335 or 10 μM Alprazolam, 48 h, FIG. 3D
Procedure: (§1) TZMbl cells were cultured with benzodiazepines for 48 hours before chromatin immunoprecipitation analysis. Following treatment, cells were processed for chromatin immunoprecipitation using the Pierce Agarose ChIP Kit (Fisher Scientific) using commercially available antibodies against histone H3 lysine 9 acetylation, STATS, and CBP/P300. Degree of occupancy at the integrated HIV-1 LTR was determined by qPCR using HIV-1 LTR specific primers run on a BioRad CFX384 qPCR machine using Sybr Green methodology.
Therefore, ChIP was performed for STATS to determine if benzodiazepine treatment might increase the recruitment of STATS above SAHA treatment (FIG. 3C). All three benzodiazepines were capable of driving recruitment of STATS to the promoter, and further recruitment was seen when used in combination with SAHA. STATS is capable of recruiting the histone acetyl transferase CBP/P300 that acetylates histone 3 at lysine 27, a residue that is not affected by SAHA. […] Addition of both Ro5-3335 and Alprazolam induced recruitment of CBP/P300 to the HIV-1 LTR (by 3 and 7 fold respectively).

HIV-1 Gag mRNA = HIV-1 Gag mRNA (RTqPCR) in ex vivo treated PBMCs from HIV-1 patients; settings: 24 h; for increase in HIV-1 Gag RNA: 10 μm Alprazolam
Procedure: (§2) To evaluate the ability of Alprazolam to reactivate latent cells from patients we obtained PBMCs from two HIV-1 patients who had been suppressed on therapy for greater than 6 months. 10×10^6 PBMCs were divided between three conditions: DMSO control, 50 μM Ro5-3335 and 10 μm Alprazolam. PBMCs were cultured in RPMI with 10% FBS and the given drugs for twenty-four hours. RNA was extracted from the cells and used for RTqPCR to detect HIV-1 Gag mRNA. RNA was extracted using Trizol reagent (Invitrogen) following manufacturer's protocol. Following reverse transcription, the samples were diluted 1:50, and 2.5 microliters were used for quantitative PCR in a BioRad CFX384 qPCR machine. All mRNA analyses were normalized to GAPDH. Nucleic acid amplification was tracked by SYBR Green method.
In order to evaluate the ability of Alprazolam to reactivate latent cells from patients, PBMCs were obtained from two HIV-1 patients who had been suppressed on therapy for greater than 6 months. 10×10^6 PBMCs were divided between three conditions: DMSO control, 50 μM Ro5-3335 and 10 μm Alprazolam. PBMCs were cultured in RPMI with 10% FBS and the given drugs for twenty-four hours. RNA was extracted from the cells and used for RTqPCR to detected HIV-1 Gag mRNA (FIG. 6). […] Treatment with Alprazolam produced detectable reactivation of HIV-1 transcripts.

HIV-1 Tat = molecular target: T1, HIV-1 Tat (Human immunodeficiency virus type 1 group M subtype B, UniProt P04608); settings: TZMbl cells transfected with Tat plasmid, 24 h treatment, FIG. 3E
T1 construct: expressed in transfected cells; host or cells: TZMbl cells

[1] = tested on: latent HIV-1 in JLat10.6 cell line model of T-cell latency; settings: for percentage of GFP+ live cells: 10 μM benzodiazepine used independently, 48 h, FIG. 1A, DMSO background 2.8%; for activation compared with the other tested benzodiazepines (in words): in the presence or absence of SAHA; for maximal effect in dose dependent reactivation (in words): compared with Alprazolam
[2] = tested on: primary peripheral blood mononuclear cells (PBMCs) from healthy donors; assay: T cell activation in primary PBMCs (CD69 flow cytometry); settings: 10 μM Alprazolam in combination with 0.5 μM SAHA, 24 h
Procedure: To investigate whether alprazolam is specifically activating HIV-1 or having general effect on T cell activation (CD4 and CD8), primary PBMC from two healthy donors were treated with 10 μM, 50 μM Alprazolam or Ro5-3335 respectively alone or in combination with 0.5 μM SAHA. Twenty-four hours after treatment, cells were stained using Zombie yellow live and dead staining and then stained for CD3, CD8, CD4, CD69, and then fixed for analysis by flow cytometry. AntiCD3/CD28 and PHA were included as a positive control. Samples were analyzed on a CYTEK® DxP12 flow cytometer followed by analysis using FLOWJO® v10 software (Treestar)
In order to investigate whether alprazolam was specifically activating HIV-1 or having a general effect on T cell activation (CD4 and CD8), primary peripheral blood mononuclear cells (PBMCs) from two healthy donors were treated with 10 μM Alprazolam or 50 μM Ro5-3335, both alone or in combination with 0.5 μM SAHA. Twenty-four hours after treatment, cells were stained using Zombie yellow live and dead staining, then stained for CD3, CD8, CD4, CD69, and then fixed for analysis by flow cytometry. AntiCD3/CD28 and PHA were included as a positive control (FIG. 2B).

IL-17 promoter = IL-17 promoter luciferase reporter assay in 293T cells
[3] = tested on: H3K9ac at the integrated HIV-1 long terminal repeat (LTR); assay: ChIP for H3K9ac at integrated HIV-1 LTR in TZMbl cells; settings: 48 h; for H3K9ac at the HIV-1 LTR versus SAHA alone (in words): 50 μM Ro5-3335, 10 μM Alprazolam or 10 μM Clonazepam with 5 μM SAHA
Procedure: as §1
In order to test the changes driven by these compounds, chromatin immunoprecipitation (ChIP) assays were performed to examine the presence of various proteins and modifications at the integrated HIV-1 long terminal repeat (LTR). TZMbl cells were treated for 48 hours with 50 μM Ro5-3335, 10 μM Alprazolam and 10 μM Clonazepam with or without 5 μM SAHA Acetylation of histone 3 at lysine 9 (H3K9ac) was first examined (FIG. 3B). […] None of the benzodiazepines were able to alter H3K9ac when used alone.

[4] = tested on: acetylated histone 3 at lysine 9 (H3K9); assay: NUCLEO-M imaging of acetylated H3K9 in isolated nuclei; settings: FIG. 3A
Procedure: Transcriptionally competent nuclei were isolated from TZM-bl cells by chemical lysis and stored following manufacturer's recommendations (Nuclei Isolation Kit: Nuclei EZ Prep, Sigma-Aldrich, Nuc-101). Nuclei were stained for 1 hour on ice in 5% FBS/PBS solution containing primary antibodies. Nuclei were washed twice in 5% FBS/PBS and stained for 1 hour on ice with appropriate secondary antibodies conjugated with fluorescent dyes. Nuclei were finally washed twice in 5% FBS/PBS and resuspended in the storage buffer provided by the kit (Nuclei Isolation Kit: Nuclei EZ Prep, Sigma-Aldrich, Nuc-101).
Isolated nuclei and TZM-bl cells seeded on a chambered coverglass (NUNC® LAB-TEK® Chambered Coverglass, Thermo Fisher) were imaged with a Zeiss AXIOVERT® microscope with a Zeiss alpha PLAN-FLUAR® 100×, 1.45 N.A., oil objective and a spinning disk confocal scan head (Yokogawa CSU-X1). A 488 nm laser source with 488-25 nm, 617-73 nm and 692-40 nm emission filters were used for the illumination of Alexa Fluor® 488 dye (Thermo Fisher) or SYTO® RNA SELECT® Green Fluorescent cell Stain (Thermo Fisher), and PerCP-Cy5.5 (BD Biosciences) respectively. A 561 nm laser source with 568-25 nm emission filters was used for illumination of ALEXA FLUOR® 555 dye (Thermo Fisher). Digital images were captured sequentially by a high-speed EM-CCD camera with 100 ms exposure time (Photometrics EVOLVE® 512). […]

RUNX1 responsive genes = assay: RUNX responsive gene expression (qPCR) in PBMCs from HIV-1 patients; settings: PBMCs of three HIV-1 patients, 48 h
Procedure: as §2
Next, expression of several RUNX responsive genes in PBMCs in response to Ro5-3335 and Alprazolam was examined. Samples from three HIV-1 patients were treated with Alprazolam or Ro5-3335 for 48 hours. RNA was harvested using Trizol and cDNA was synthesized using RT reaction. qPCR was performed using primers for seven known RUNX1 responsive genes: APOBEC3C, APOBEC3G, Tbet, RUNX1 d, IL-2, IL7R and STAH (FIG. 5).

JLat10.6 cells = assay: JLat10.6 cell viability (live/dead staining); settings: 48 h, DMSO control 97%
Procedure: […] Forty-eight hours after treatment, cells were stained for live dead staining using Live/Dead Red stain (BD Biosciences). Viability was determined by fluorescent detection of the live dead stain using a CYTEK® DxP12 flow cytometer. Comparison to untreated cells was used to determine degree of cell viability.
To examine safety of the treatment and effect on T-cell activation, Jlat10.6 cells were treated with different benzodiazepines with and without SAHA. Forty-eight hours after incubation, cells were harvested and stained with red live/dead staining according to the manufacturer protocol (LIVE/DEAD® Fixable Red Dead Cell Stain Kit, ThermoFisher Scientific) (FIG. 2A). Trichostatin A, used as a positive control induced toxicity (68% viable).

T1 sequence (P04608 whole entry): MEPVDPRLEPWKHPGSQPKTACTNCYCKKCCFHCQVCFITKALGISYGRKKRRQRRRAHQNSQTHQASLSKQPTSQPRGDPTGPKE

Cc1nnc2n1-c1ccc(Cl)cc1C(c1ccccc1)=NC2 [Alprazolam]
recruitment of CBP/P300 to the HIV-1 LTR (CBP/P300): 7 fold
increase in HIV-1 Gag RNA (HIV-1 Gag mRNA; Patient 1, versus DMSO control): 4.6 fold
increase in HIV-1 Gag RNA (HIV-1 Gag mRNA; Patient 2, versus DMSO control): 3.3 fold
luciferase expression driven by Tat (in words) (HIV-1 Tat): additional activation beyond what was seen with Tat alone
percentage of GFP+ live cells [1]: 20.3%
GFP+ cells, dose dependent reactivation ([1]; alone, at 10 μM, FIG. 1B, DMSO control 2.8%): 25.5%
activation compared with the other tested benzodiazepines (in words) [1]: maximum activation
T cell activation (in words) [2]: did not induce any significant T cell activation
T cell activation (in words) ([2]; listed as alprazolam): did not induce significant T-cell activation
IL-17 promoter luciferase activity (in words) (IL-17 promoter; RUNX1 over expression): increased luciferase activity
IL-17 promoter activity (in words) (IL-17 promoter; absence of SAHA or RUNX1 over expression, lowest dose 0.1 μM): statistically significant suppression
IL-17 promoter luciferase activity (in words) (IL-17 promoter; in the presence of SAHA): no effect on luciferase activity
H3K9ac at the HIV-1 LTR versus SAHA alone (in words) [3]: further increased acetylation over SAHA alone

O=C1CN=C(c2ccccc2Cl)c2cc([N+](=O)[O-])ccc2N1 [Clonazepam]
maximal effect in dose dependent reactivation (in words) ([1]; alone, FIG. 1B): smaller maximal effect, but at lower doses
H3K9ac at the HIV-1 LTR versus SAHA alone (in words) [3]: potentiation was not seen

O=C(O)C1N=C(c2ccccc2)c2cc(Cl)ccc2NC1=O (stereo not drawn) [Clorazepate]
luciferase expression driven by Tat (in words) (HIV-1 Tat): additional activation beyond what was seen with Tat alone
maximal effect in dose dependent reactivation (in words) ([1]; alone, FIG. 1B): smaller maximal effect, but at lower doses

CN1C(=O)CN=C(c2ccccc2)c2cc(Cl)ccc21 [Diazepam]
percentage of GFP+ live cells [1]: 12.4%
activation compared with the other tested benzodiazepines (in words) [1]: maximum activation

CN1C(=O)CN=C(c2ccccc2F)c2cc([N+](=O)[O-])ccc21 [Flunitrazepam]
percentage of GFP+ live cells [1]: 9.1%

O=C1CN=C(c2ccc[nH]2)c2cc(Cl)ccc2N1 [Ro5-3335]
recruitment of CBP/P300 to the HIV-1 LTR (CBP/P300): 3 fold
acetylated H3K9 in the nuclei (in words) ([4]; Ro5-3335 and SAHA): further increased the acetylation; also recorded: increase in acetylated histone 3 at lysine 9
increase in HIV-1 transcripts (Gag mRNA) (HIV-1 Gag mRNA; 50 μM Ro5-3335 alone, two patients, versus DMSO control): 1.5 fold and 1.2 fold
luciferase expression driven by Tat (in words) (HIV-1 Tat): significantly suppressed luciferase expression; also recorded: significant suppression of Tat
activation of latent virus (in words) ([1]; Ro5-3335 by itself, without SAHA): did not activate the virus by itself
expression of seven selected RUNX responsive genes (in words) (RUNX1 responsive genes): significantly altered the expression of five of the selected RUNX responsive genes
IL-17 promoter activity (in words) (IL-17 promoter; all three conditions: alone, with SAHA, with RUNX1 overexpression): inhibited IL-17 promoter in a dose dependent fashion
H3K9ac at the HIV-1 LTR versus SAHA alone (in words) [3]: potentiation was not seen

O=C(CCCCCCC(=O)Nc1ccccc1)NO [SAHA, N-hydroxy-N′-phenyloctanediamide]
recruitment of CBP/P300 (in words) (CBP/P300; SAHA alone): no increase in recruitment
acetylated H3K9 in the nuclei (in words) ([4]; SAHA alone): increase in acetylated H3K9; also recorded: increase in acetylated histone 3 at lysine 9
GFP+ cells ([1]; 0.5 uM SAHA alone, FIG. 1B): 5.9%
GFP+ cells ([1]; SAHA alone, FIG. 1A screen, DMSO 2.8%): 6.2%
viability (JLat10.6 cells; 0.5 μM SAHA): 94.6%
IL-17 driven luciferase expression (in words) (IL-17 promoter; SAHA treatment compared to control): increased IL-17 driven luciferase expression
occupancy of H3K9ac at the promoter (in words) ([3]; 5 μM SAHA alone, compared to DMSO control): increased the occupancy of H3K9ac

CC(/C=C/C(=O)NO)=C\[C@@H](C)C(=O)c1ccc(N(C)C)cc1 [Trichostatin A, [R-(E,E)]-7-[4-(Dimethylamino)phenyl]-N-hydroxy-4,6-dimethyl-7-oxo-2,4-heptadienamide]
viable cells (JLat10.6 cells; positive control): 68%
